In brackets after ≈: the same amount, converted by molar mass. Activity calls are given as the source filed them. No cut-off for these calls is given here.

The test system of test [1] is P388. The test can be described thus: Cytotoxicity against mouse P388 cells in in vitro assay. The format is functional. Conditions: read-out: ED50 (the source's name).
The subject of test [2] is P388. As to the kind of experiment: Cytotoxicity against mouse P388 cells in in vivo assay. The test is classed as functional, organism-based.

Regarding `CCCCCCCCCCCCCCCCCCCCCC(=O)OCC(COC(=O)CCCCCCCCCCCCCCCCCCCCC)OC(=O)/C=C/c1ccc(O)c(OC)c1`, the EC50 in test [1] was determined as 0.8 µg/mL (≈ 0.876 µM). Further, in test [2], the result was inactive. Regarding `CCC/C=C/C=C/C=C/C(=O)O[C@@H]1[C@@H](C)[C@@]2(O)[C@@H](C=C(CO)C[C@]3(O)C(=O)C(C)=C[C@@H]23)[C@@H]2C(C)(C)[C@]12OC(C)=O`, the EC50 in test [1] came out at 0.0022 µg/mL (≈ 0.00397 µM).

The values are drawn from ChEMBL document CHEMBL1151374, “Plant anticancer agents. XIX Constituents of Aquilaria malaccensis” (1981).
